In publication doi:10.1101/706168v1 (biorxiv, 2019):
pEC50: −log10 of the molar value.

Target: TASK-1 (K2P3.1), wild type (Homo sapiens, UniProt O14649)
Test: two-electrode voltage clamp, Xenopus oocytes
Format: cell-based

TASK-1 (K2P3.1), wild type, sequence (O14649 whole entry): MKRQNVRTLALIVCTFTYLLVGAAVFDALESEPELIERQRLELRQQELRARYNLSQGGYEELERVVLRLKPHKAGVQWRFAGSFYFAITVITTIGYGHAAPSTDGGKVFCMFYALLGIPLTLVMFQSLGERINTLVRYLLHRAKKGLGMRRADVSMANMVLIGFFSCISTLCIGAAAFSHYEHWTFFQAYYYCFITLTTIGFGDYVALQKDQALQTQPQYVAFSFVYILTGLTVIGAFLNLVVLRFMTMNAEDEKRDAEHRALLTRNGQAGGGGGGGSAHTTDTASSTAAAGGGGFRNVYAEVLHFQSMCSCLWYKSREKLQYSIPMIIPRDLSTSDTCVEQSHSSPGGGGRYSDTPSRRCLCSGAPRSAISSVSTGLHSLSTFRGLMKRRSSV

O=C(c1cccc(OC(F)(F)F)n1)N1CCN(Cc2c(-c3ccc(Cl)cc3)nc3ccccn23)CC1 [BAY 2341237, (4-{[2-(4-chlorophenyl)imidazo[1,2-a]pyridin-3-yl]methyl}piperazin-1-yl)[6-(trifluoromethoxy)pyridin-2-yl]methanone]
pEC50: 8.12
